Source: US11021481B2, “Substituted isoindolin-1-ones and 2,3-dihydro-1h-pyrrolo[3,4-c]pyridin-1-ones as HPK1 antagonists” (Nimbus Saturn, Inc., priority 2019, dated 2021)
Structures can show the parent of a compound that is named as a salt.

The compounds below were run against HPK1 (Homo sapiens (Human), UniProt Q92918) (assay: HPK1 biochemical enzyme assay (microfluidic mobility shift assay)). Conditions: 1.5 nM HPK1, ATP 1 mM final, 30 min preincubation, 60 min at RT, Caliper EZ Reader; read-out: HPK1 1000UMATP caliper IC50.
Sequence of HPK1 (Q92918 whole entry): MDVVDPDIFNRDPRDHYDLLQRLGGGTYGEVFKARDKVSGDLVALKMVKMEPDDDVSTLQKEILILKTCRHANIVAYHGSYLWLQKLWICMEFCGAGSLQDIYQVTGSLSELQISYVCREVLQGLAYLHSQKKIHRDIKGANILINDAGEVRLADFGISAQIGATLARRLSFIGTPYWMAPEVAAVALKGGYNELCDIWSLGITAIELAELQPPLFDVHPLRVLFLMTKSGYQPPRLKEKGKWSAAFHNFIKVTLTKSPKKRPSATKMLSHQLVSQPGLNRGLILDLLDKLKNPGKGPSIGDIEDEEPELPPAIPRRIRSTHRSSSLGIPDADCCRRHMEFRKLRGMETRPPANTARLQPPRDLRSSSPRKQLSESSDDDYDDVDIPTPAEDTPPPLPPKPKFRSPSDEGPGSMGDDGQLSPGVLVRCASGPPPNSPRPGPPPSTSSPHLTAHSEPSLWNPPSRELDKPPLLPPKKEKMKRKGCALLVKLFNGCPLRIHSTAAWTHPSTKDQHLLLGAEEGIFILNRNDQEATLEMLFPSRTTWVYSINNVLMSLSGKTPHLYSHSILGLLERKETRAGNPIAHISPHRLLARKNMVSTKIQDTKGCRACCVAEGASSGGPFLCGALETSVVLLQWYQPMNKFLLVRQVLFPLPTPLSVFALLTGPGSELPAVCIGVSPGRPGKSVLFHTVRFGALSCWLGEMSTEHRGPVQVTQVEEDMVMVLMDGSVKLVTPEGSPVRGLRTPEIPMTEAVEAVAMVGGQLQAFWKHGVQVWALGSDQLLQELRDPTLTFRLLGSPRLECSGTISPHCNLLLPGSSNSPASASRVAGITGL
Outline: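 Mobility shift readout of HPK1 activity after a 60 min RT reaction with 1 mM ATP, 1 μM substrate and 5 mM MgCl2. Enzyme/substrate mix was first exposed to compounds for 30 min, using ten-point curves topping at 3 μM final.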

Compound	IC50 [nM]
Cn1ccc2c(-c3ncc(Nc4ccc5c(n4)CNCC5)c4c3CNC4=O)ccnc21 [I-413]	> 1000
O=C1NCc2c(-c3cnc4cc(F)ccn34)ccc(Nc3cc(C4CCOCC4)[nH]n3)c21 [I-381, 4-(7-fluoroimidazo [1,2-a]pyridin-3-yl)-7-((5-(tetrahydro-2H-pyran-4-yl)-1H-pyrazol-3-yl)amino)isoin-dolin-1-one]	< 100
Cn1ccc2c(-c3ncc(Nc4ccc(N5CC6CCC(C5)N6)cn4)c4c3CNC4=O)ccnc21 [I-262, 7-((5-(3,8-diazabicyclo [3.2.1]octan-3-yl)pyridin-2-yl)amino)-4-(1-methyl-1H-pyrrolo[2,3-b]pyridin-4-yl)-2,3-dihydro-1H-pyrrolo[3,4-c]pyridin-1-Fone]	< 100
Cc1ccn2c(-c3ccc(Nc4ccc(N5CCC(O)CC5)cn4)c4c3CNC4=O)cnc2c1C [I-176, 4-(7,8-dimethylimi-dazo[1,2-a]pyridin-3-yl)-7-[[5-(4-hydroxy-1-piperidyl)-2-pyridyl]amino] isoindolin-1-one]	< 100
Cc1ccn2c(-c3ccc(Nc4ccc(N5CCO[C@@H](C(C)(C)O)C5)cn4)c4c3CNC4=O)cnc2c1F [I-487, 4-(8-fluoro-7-methyl-imidazo[1,2-a]pyridin-3-yl)-7-[[5-[(2R)-2-(1-hydroxy-1-methyl-ethyl)morpholin-4-yl]-2-pyridyl]amino]isoindolin-1-one]	< 100
CN1CCN(c2ccc(Nc3ccc(-c4cnn5ccncc45)c4c3C(=O)NC4)nc2)CC1 [I-113, 7-[[5-(4-methylpiperazin-1-yl)-2-pyridyl]amino]-4-pyrazolo[1,5-a]pyrazin-3-yl-isoindolin-1-one]	< 100
C[C@H](O)C1CCN(c2ccc(Nc3ccc(-c4cnc5cc(F)ccn45)c4c3C(=O)NC4)nc2)CC1 [I-214, 4-(7-fluoroimidazo [1,2-a]pyridin-3-yl)-7-[[5-[4-[(1S)-1-hydroxyethyl]-l-piperidyl]-2-pyridyl]amino] isoindolin-1-one]	< 100
CN1CCC(O)(c2cccc(Nc3cnc(-c4ccnc5c4ccn5C)c4c3C(=O)NC4)n2)CC1 [I-407, 7-((6-(4-hydroxy-1-methylpiperidin-4-yl)pyridin-2-yl)amino)-4-(1-methyl-1H-pyrrolo[2,3-b]pyridin-4-yl)-2,3-dihydro-1H-pyrrolo[3,4-c]pyridin-1-one]	< 100
O=C1NCc2c(-c3cnc4c(F)cccn34)ncc(Nc3ccc(N4CC[C@H](F)[C@@H](O)C4)cn3)c21 [I-653, 7-((5-((3S.4S)-4-fluoro-3-liydroxy-piperidin-1-yl)pyridin-2-yl)amino)-4-(8-fluoroimidazo [1,2-a]pyridin-3-yl)-2,3-dihydro-1H-pyrrolo[3,4-c]pyridin-1-one]	< 100
CN(CCO)Cc1nc(Nc2ccc(-c3cnc4cc(F)ccn34)c3c2C(=O)NC3)ccc1C1CCOC1 (stereo in doubt) [I-733, (S)-4-(7-fluoroimidazo [1,2-a]pyridin-3-yl)-7-(6-(((2-hydroxy-ethyl)(methyl)-amino)methyl)-5-(tetrahydrofuran-3-yl)pyridin-2-yl)amino)isoin-dolin-1-one]	< 100
CN1CCN(c2ccc(Nc3ccc(-c4ccnc5c4CCN5)c4c3C(=O)NC4)nc2)CC1 [I-68, 4-(2,3-dihydro-1H-pyrrolo[2,3-b]pyridin-4-yl)-7-[[5-(4-methylpiperazin-1-yl)-2-pyridyl]amino] isoindolin-1-one]	< 100
CN(C)Cc1nc(Nc2cnc(-c3ccnc4[nH]ccc34)c3c2C(=O)NC3)ccc1[C@H]1CCOC1 [I-767, (R)-7-((6-((dimethylamino)-methyl)-5-(tetrahydrofuran-3-yl)pyridin-2-yl)amino)-4-(1H-pyrrolo[2,3-b]pyridin-4-yl)-2,3-dihydro-1H-pyrrolo[3,4-c]pyridin-1-one]	< 100
Cc1ccn2c(-c3ncc(Nc4ccc(N5CCOCC5)cn4)c4c3CNC4=O)cnc2c1 [I-163]	100 to 1000
CC(C)(c1ccc(Nc2ccc(-c3cnc4cc(F)ccn34)c3c2C(=O)NC3)nc1)N1CCOCC1 [I-747, 4-(7-fluoroimidazo [1,2-a]pyridin-3-yl)-7-((5-(2-morpholino-propan-2-yl)pyridin-2-yl)amino)isoin-dolin-1-one]	< 100
CN(C)Cc1nc(Nc2ccc(-c3cnc4cc(F)ccn34)c3c2C(=O)NC3)cnc1[C@H]1CCOC1 [I-800, (R)-7-((6-((dimethylamino)-methyl)-5-(tetrahydrofuran-3-yl)pyrazin-2-yl)amino)-4-(7-fluoroimidazo [1,2-a]pyridin-3-yl)isoindolin-1-one]	< 100
CN(C)C1(C2CN(c3ccc(Nc4ccc(-c5cnc6cc(F)ccn56)c5c4C(=O)NC5)nc3)CCO2)CC1 (stereo in doubt) [I-686, (R)-7-((5-(2-(1-(dimethylami-no)cyclopropyl)morphoIino)py-ridin-2-yl)amino)-4-(7-fluoroimidazo [1,2-a]pyridin-3-yl)isoindolin-1-one]	< 100
CC(C)NCc1nc(Nc2ccc(-c3cnc4cc(F)ccn34)c3c2C(=O)NC3)ccc1[C@H]1CCOC1 [I-559, (R)-4-(7-fluoroimidazo [1,2-a]pyridin-3-yl)-7-((6-((isopropylamino)-methyl)-5-(tetrahydrofuran-3-yl)pyridin-2-yl)amino)isoin-dolin-1-one]	< 100

Compound	IC50 [nM]
CN1CCN(c2ccc(Nc3cnc(-c4c[nH]c5nc(C(F)(F)F)ccc45)c4c3C(=O)NC4)nc2)CC1 [I-253, 7-((5-(4-methylpiperazin-1-yl)pyridin-2-yl)amino]-4-(6-(trifluorometh-yl)-1H-pyrrolo[2,3-b]pyridin-3-yl)-2,3-dihydro-1H-pyrrolo[3,4-c]pyridin-1-one]	> 1000
O=C1NCc2c(-c3cnc4cc(F)ccn34)ccc(Nc3ccc(C4CCOC4)c(CNCC4CC4)n3)c21 (stereo not drawn) [I-849, 7-[[6-[(cyclopropylmethylamino)methyl]-5-tetrahydrofuran-3-yl-2-pyridyl]amino]-4-(7-fluoroimidazo [1,2-a]pyridin-3-yl)isoindolin-1-one Formic acid salt]	< 100
CO[C@]1(CN(C)C)CCCN(c2ccc(Nc3ccc(-c4cnc5cc(F)ccn45)c4c3C(=O)NC4)nc2)C1 [I-612, (S)-7-((5-(3-((dimethylamino)-methyl)-3-methoxy-piperidin-1-yl)pyridin-2-yl)amino)-4-(7-fluoroimidazo [1,2-a]pyridin-3-yl)isoindolin-1-one]	< 100
CN1CCN(c2ccc(Nc3ccc(-c4ccnc5cc[nH]c45)c4c3C(=O)NC4)nc2)CC1 [I-81, 7-[[5-(4-methylpiperazin-1-yl)-2-pyridyl]amino]-4-(1H-pyrrolo[3,2-b]pyridin-7-yl)isoindolin-1-one]	< 100
CN1CCN(CC2(O)CCN(c3ccc(Nc4ccc(-c5cnc6cnccn56)c5c4C(=O)NC5)nc3)CC2)CC1 [I-412, 7-((5-(4-hydroxy-4-((4-methylpiperazin-1-yl)methyl)piper-idin-1-yl)pyridin-2-yl)amino)-4-(imidazo[1,2-a]pyrazin-3-yl)isoindolin-1-one]	< 100
Cc1[nH]c2ncccc2c1-c1ncc(Nc2ccc(N3CCN(C)CC3)cn2)c2c1CNC2=O [I-15]	100 to 1000
O=C1NCc2c(-c3cnc4cc(F)ccn34)ccc(Nc3ccc(C4CCOC4)c(CN4CCCC4)n3)c21 (stereo not drawn) [I-505, 4-(7-fluoroimidazo [1,2-a]pyridin-3-yl)-7-[[6-(pyrrolidin-1-ylmethyl)-5-tetrahydrofuran-3-yl-2-pyridyl]amino]isoindolin-1-one]	< 100
O=C1NCc2c(-c3cnc4c(F)cccn34)ncc(Nc3ccc(C4(O)CCOCC4)cn3)c21 [I-683, 4-(8-fluoroimidazo [1,2-a]pyridin-3-yl)-7-((5-(4-hydroxytetra-hydro-2H-pyran-4-yl)pyridin-2-yl)amino)-2,3-dihydro-1H-pyrrolo[3,4-c)pyridin-1-one]	< 100
O=C1NCc2c(-c3cnc4cc(F)ccn34)ccc(Nc3ccc(N4CCOCC4)cn3)c21 [I-159, 4-(7-fluoroimidazo [1,2-a]pyridin-3-yl)-7-[(5-morpholino-2-pyridyl)amino] isoindolin-1-one]	< 100
CC(C)N(C)Cc1nc(Nc2ccc(-c3cnc4cc(F)ccn34)c3c2C(=O)NC3)ccc1C1CCOC1 (stereo in doubt) [I-730, (R)-4-(7-fluoroimidazo [1,2-a]pyridin-3-yl)-7-((6-((isopropyl(methyl)amino)methyl)-5-(tetrahydrofuran-3-yl)pyridin-2-yl)amino)isoin-dolin-1-one]	< 100
CNCc1nc(Nc2ccc(-c3cnc4cc(F)ccn34)c3c2C(=O)NC3)ccc1C1CCOC1 (stereo in doubt) [I-722, (S)-4-(7-fluoroimidazo [1,2-a]pyridin-3-yl)-7-((6-((methyl-amino)methyl)-5-(tetrahydrofuran-3-yl)pyridin-2-yl)amino)isoin-dolin-1-one]	< 100
CN1CCN(c2ccc(Nc3cnc(-c4c(F)cnc5c4ccn5C)c4c3C(=O)NC4)nc2)CC1 [I-128]	< 100
Cn1ccc2c(-c3ccc(Nc4ccc(N5CCC6(CC5)COC6)cn4)c4c3CNC4=O)ccnc21 [I-299]	< 100
O=C1NCc2c(-c3cnc4n3CCOC4)ccc(Nc3ccc(N4CCC(O)CC4)cn3)c21 [I-143]	< 100
Cn1ccc2c(-c3ncc(Nc4ccc([C@@H]5CCOC5)cn4)c4c3CNC4=O)ccnc21 [I-219, (S)-4-(1-methyl-1H-pyrrolo[2,3-b]pyridin-4-yl)-7-((5-(tetrahydro-furan-3-yl)pyridin-2-yl)amino)-2,3-dihydro-1H-pyrrolo[3,4-c]pyridin-1-one]	< 100
Cn1ccc2c(-c3c(F)cc(Nc4ccc(N5CCC(O)CC5)cn4)c4c3CNC4=O)ccnc21 [I-197, 5-fluoro-7-[[5-(4-hydroxy-1-piperidyl)-2-pyridyl]amino]-4-(1-methylpyrrolo[2,3-b]pyridin-4-yl)isoindolin-1-one]	< 100
